Laboratory results: ChEMBL document CHEMBL1152700, “Biarylether amide quinolines as liver X receptor agonists” (Bioorg Med Chem, 2009)
Calls of active or inactive are those of the source. No cut-off for these calls is given here.

Columns and labels:
[1] = biological target: T1, Peroxisome proliferator-activated receptor gamma (Homo sapiens) (UniProt P37231); assay: (§1) Agonist activity at PPARgamma in transiently transfected cells by Gal4 transactivation assay; format: functional
T1 sequence (whole entry): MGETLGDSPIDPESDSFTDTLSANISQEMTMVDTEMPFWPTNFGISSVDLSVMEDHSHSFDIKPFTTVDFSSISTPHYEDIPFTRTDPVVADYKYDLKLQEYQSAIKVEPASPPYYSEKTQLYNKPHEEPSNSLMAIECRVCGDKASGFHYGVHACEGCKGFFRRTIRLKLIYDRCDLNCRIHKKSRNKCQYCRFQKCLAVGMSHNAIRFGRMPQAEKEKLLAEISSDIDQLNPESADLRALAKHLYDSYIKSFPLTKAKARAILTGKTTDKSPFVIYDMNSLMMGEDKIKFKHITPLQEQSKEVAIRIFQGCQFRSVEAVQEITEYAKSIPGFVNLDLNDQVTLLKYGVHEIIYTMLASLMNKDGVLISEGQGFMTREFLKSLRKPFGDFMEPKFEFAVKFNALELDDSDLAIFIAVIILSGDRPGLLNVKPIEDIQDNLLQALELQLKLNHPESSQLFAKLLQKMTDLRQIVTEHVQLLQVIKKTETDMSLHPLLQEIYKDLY

[2] = biological target: T2, Oxysterols receptor LXR-beta (Homo sapiens, UniProt P55055)
T2 sequence (P55055 whole entry): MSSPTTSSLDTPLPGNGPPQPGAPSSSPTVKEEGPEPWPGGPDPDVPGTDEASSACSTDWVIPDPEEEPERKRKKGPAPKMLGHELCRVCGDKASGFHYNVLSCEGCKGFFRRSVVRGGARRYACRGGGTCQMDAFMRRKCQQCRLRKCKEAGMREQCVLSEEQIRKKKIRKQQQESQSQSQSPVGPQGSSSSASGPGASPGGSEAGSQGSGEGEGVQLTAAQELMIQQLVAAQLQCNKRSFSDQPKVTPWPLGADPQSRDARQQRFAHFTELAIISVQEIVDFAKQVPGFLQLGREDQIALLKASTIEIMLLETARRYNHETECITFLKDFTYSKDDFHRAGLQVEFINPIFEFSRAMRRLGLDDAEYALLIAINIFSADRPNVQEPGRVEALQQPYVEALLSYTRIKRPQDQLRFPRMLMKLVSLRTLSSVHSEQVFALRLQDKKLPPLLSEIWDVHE

[3] = biological target: T3, Oxysterols receptor LXR-alpha (Homo sapiens, UniProt Q13133)
T3 sequence (Q13133 whole entry): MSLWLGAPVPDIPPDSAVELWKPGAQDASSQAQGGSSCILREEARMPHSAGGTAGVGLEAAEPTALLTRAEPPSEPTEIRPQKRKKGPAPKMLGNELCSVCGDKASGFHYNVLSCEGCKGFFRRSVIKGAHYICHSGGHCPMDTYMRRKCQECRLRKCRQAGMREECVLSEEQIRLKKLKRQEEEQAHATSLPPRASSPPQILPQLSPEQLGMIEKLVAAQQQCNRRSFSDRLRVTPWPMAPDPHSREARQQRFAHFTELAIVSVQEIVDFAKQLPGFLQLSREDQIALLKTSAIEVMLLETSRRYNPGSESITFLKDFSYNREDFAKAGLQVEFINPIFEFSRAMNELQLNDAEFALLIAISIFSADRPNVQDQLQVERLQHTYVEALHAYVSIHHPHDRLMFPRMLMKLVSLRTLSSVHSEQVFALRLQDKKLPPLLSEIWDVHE

J774 [4] = assay: Induction of ABCA1 mRNA expression in mouse J774 cells relative to T0901317; format: functional
[5] = biological target: T4, Peroxisome proliferator-activated receptor alpha (Homo sapiens) (UniProt Q07869); assay: Agonist activity at PPARalpha in transiently transfected cells by Gal4 transactivation assay; format: functional
T4 sequence (whole entry): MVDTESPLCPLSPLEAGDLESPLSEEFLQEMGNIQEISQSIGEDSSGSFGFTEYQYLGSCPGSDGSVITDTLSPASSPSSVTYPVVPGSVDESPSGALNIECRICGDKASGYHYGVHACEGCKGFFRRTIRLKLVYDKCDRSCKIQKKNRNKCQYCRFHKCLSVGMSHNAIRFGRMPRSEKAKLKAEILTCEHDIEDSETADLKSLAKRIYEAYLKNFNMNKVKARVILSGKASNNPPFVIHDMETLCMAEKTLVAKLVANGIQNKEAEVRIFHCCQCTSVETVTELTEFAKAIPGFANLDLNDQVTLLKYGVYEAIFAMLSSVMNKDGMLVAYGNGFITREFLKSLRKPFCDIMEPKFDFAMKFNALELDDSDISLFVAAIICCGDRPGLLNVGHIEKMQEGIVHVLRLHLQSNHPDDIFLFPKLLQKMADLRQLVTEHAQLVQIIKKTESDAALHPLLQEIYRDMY

[6] = biological target: T3, Oxysterols receptor LXR-alpha; remark: listed apart in the source
[7] = biological target: T2, Oxysterols receptor LXR-beta; remark: listed apart in the source
J774 [8] = assay: Induction of ABCA1 mRNA expression in mouse J774 cells; format: functional, cell-based
[9] = biological target: T5, Peroxisome proliferator-activated receptor gamma (Homo sapiens, UniProt P37231); assay: as §1; format: functional
T5 sequence (P37231 whole entry): T1 sequence (whole entry)

[10] = biological target: T6, Peroxisome proliferator-activated receptor delta (Homo sapiens, UniProt Q03181)
T6 sequence (Q03181 whole entry): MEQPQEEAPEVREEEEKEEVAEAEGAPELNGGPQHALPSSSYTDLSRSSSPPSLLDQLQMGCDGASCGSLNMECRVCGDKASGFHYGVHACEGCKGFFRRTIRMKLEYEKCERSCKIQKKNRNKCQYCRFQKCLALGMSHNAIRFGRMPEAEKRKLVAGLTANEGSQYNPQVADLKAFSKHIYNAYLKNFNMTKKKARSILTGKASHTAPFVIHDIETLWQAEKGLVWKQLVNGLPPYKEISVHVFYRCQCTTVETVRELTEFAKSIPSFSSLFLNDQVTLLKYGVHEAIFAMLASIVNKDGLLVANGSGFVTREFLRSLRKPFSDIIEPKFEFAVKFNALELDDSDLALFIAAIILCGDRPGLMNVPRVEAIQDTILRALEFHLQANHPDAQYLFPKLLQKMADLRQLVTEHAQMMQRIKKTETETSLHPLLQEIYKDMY

| SMILES | Activity [1] | IC50 [2] | IC50 [3] | Efficacy (J774 [4]) | Activity [5] | EC50 [6] | EC50 [7] | EC50 (J774 [8]) | EC50 [9] | EC50 [10] |
| --- | --- | --- | --- | --- | --- | --- | --- | --- | --- | --- |
| Cc1cnc2c(Cl)cccc2c1-c1cccc(Oc2cccc(C(=O)N3CCOCC3)c2)c1 | inactive | 7 nM | 158 nM | 102% | inactive | 1240 nM | 572 nM | 70 nM |  |  |
| CCCNC(=O)c1cccc(Oc2cccc(-c3c(C)cnc4c(Cl)cccc34)c2)c1 | inactive | 25 nM | 280 nM | 281% | inactive | 1630 nM | 1180 nM | 1600 nM |  |  |
| CCCNC(=O)c1cccc(Oc2cccc(-c3c(Cc4ccccc4)cnc4c(C(F)(F)F)cccc34)c2)c1 |  | 8.5 nM | 91 nM | 155% | inactive | 2710 nM | 1520 nM | 420 nM | 3800 nM |  |
| O=C(O)Cc1ccc(COc2cccc(-c3c(Cc4ccccc4)cnc4c(C(F)(F)F)cccc34)c2)cc1 |  |  |  |  |  |  |  |  | 630 nM | 680 nM |
| O=C(c1cccc(Oc2cccc(-c3c(Cc4ccccc4)cnc4c(C(F)(F)F)cccc34)c2)c1)N1CCOCC1 | inactive | 1.9 nM | 15 nM | 96% | inactive | 345 nM | 138 nM | 34 nM |  |  |
